Like-named read-outs stand apart in the source and are kept apart here.
Legend:
TbrCatL = target: T1, TbrCatL (Trypanosoma brucei rhodesiense, UniProt Q95PM0); assay: TbrCatL enzymatic inhibition assay (cleavage of fluorogenic substrate Z-FR-AMC); type: biochemical; conditions: for TbrCatL 0’ Inhibition / TbrCatL 10’ Inhibition: sheet "Screening results";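 on TbrCatL 0’ Inhibition: at 5 µM compound concentration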;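 on TbrCatL 10’ Inhibition: at 5 µM compound concentration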;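 on TbrCatL Inhibition 0’: at 5 µM compound concentration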;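 on TbrCatL Inhibition 10’: at 5 µM compound concentration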
T1 construct: Conor Caffrey (University of California San Diego)
T1 sequence (Q95PM0 entry or part of it): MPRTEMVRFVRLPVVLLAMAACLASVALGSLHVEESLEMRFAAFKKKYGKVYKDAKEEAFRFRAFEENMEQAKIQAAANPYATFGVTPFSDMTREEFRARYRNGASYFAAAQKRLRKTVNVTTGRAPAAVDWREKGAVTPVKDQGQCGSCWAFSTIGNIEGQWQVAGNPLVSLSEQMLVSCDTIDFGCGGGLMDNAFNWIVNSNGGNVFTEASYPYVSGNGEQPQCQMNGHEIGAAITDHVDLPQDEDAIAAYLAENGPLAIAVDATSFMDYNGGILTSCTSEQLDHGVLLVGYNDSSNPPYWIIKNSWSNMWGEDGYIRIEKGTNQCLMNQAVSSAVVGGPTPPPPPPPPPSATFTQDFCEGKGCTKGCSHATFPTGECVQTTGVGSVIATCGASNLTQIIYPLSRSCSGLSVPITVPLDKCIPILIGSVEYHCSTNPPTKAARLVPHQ
Procedure, shortened: (§1)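 Recombinant enzymes assayed by Z-Phe-Arg-AMC cleavage at 25 °C, fluorescence 340/440 nm over 5–7 min, with 10 min or no enzyme–compound preincubation.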

cruzain = cruzain (Trypanosoma cruzi, UniProt P25779); assay: biochemical;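 on Cruzain 0’ Inhibition: at 5 µM compound concentration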;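 on Cruzain 10’ Inhibition: at 5 µM compound concentration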;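 on Cruzain Inhibition 0’: at 5 µM compound concentration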;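 on Cruzain Inhibition 10’: at 5 µM compound concentration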
cruzain, sequence (P25779 123-337 limits assumed): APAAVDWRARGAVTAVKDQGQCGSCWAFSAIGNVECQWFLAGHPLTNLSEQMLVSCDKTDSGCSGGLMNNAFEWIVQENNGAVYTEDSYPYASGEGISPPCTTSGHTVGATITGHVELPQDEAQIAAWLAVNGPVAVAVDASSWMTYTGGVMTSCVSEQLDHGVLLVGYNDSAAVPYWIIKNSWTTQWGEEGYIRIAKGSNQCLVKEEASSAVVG
Procedure, shortened: as §1

[1] = 0’ (pre-incubation time), sheet "Screening results"
[2] = 10’ (pre-incubation time), sheet "Screening results"
[3] = 0’ (pre-incubation time), Pathogen Box screening results
[4] = 10’ (pre-incubation time), Pathogen Box screening results
[5] = 0’ (no pre-incubation), sheet Screening results
[6] = 10’ (pre-incubation), sheet Screening results

CN1CCN(c2nccc3[nH]c(-c4cccc(F)c4)cc23)CC1 [MMV393144]
TbrCatL 0’ Inhibition (TbrCatL; 0’ (pre-incubation time)): -8.5% | TbrCatL 10’ Inhibition (TbrCatL; 10’ (pre-incubation time)): -8% | Cruzain 0’ Inhibition (cruzain; [1]): -15% | Cruzain 10’ Inhibition (cruzain; [2]): -11%

Cc1cc(=O)[nH]c(-n2nc(C)cc2C)n1 [MMV393995]
TbrCatL Inhibition 0’ (TbrCatL; [3]): -13% | TbrCatL Inhibition 10’ (TbrCatL; [4]): -7% | Cruzain Inhibition 0’ (cruzain; [3]): -12% | Cruzain Inhibition 10’ (cruzain; [4]): -0.3%

CCc1nc2ccc(C(=O)NCc3ccc4c(c3)OCO4)cn2c1N(C)Cc1cccs1 [MMV407539]
TbrCatL 0’ Inhibition (TbrCatL; 0’ (pre-incubation time)): -10% | TbrCatL 10’ Inhibition (TbrCatL; 10’ (pre-incubation time)): -3.2% | Cruzain 0’ Inhibition (cruzain; [1]): -4% | Cruzain 10’ Inhibition (cruzain; [2]): -3%

CCOc1ccccc1NC(C)C(=O)Nc1cc(C(F)(F)F)ccc1N1CCOCC1 (stereo not drawn) [MMV407834]
TbrCatL 0’ Inhibition (TbrCatL; 0’ (pre-incubation time)): -3% | TbrCatL 10’ Inhibition (TbrCatL; 10’ (pre-incubation time)): -7% | Cruzain 0’ Inhibition (cruzain; [1]): -3.4% | Cruzain 10’ Inhibition (cruzain; [2]): 4%

COC(=O)c1c(NC(=O)c2c(F)c(F)c(F)c(F)c2F)sc2c1CCCCC2 [MMV461553]
TbrCatL Inhibition 0’ (TbrCatL; [5]): -16% | TbrCatL Inhibition 10’ (TbrCatL; [6]): 9% | Cruzain Inhibition 0’ (cruzain; [5]): -34% | Cruzain Inhibition 10’ (cruzain; [6]): -24%

CC(C)(C)c1cnc(NC(=O)c2ccccc2O)s1 [MMV495543]
TbrCatL Inhibition 0’ (TbrCatL; [3]): -9% | TbrCatL Inhibition 10’ (TbrCatL; [4]): 6.5% | Cruzain Inhibition 0’ (cruzain; [3]): -17% | Cruzain Inhibition 10’ (cruzain; [4]): 3.4%

CS(=O)(=O)Cc1nc2ccccc2oc1=O [MMV553002]
TbrCatL Inhibition 0’ (TbrCatL; [5]): 19% | TbrCatL Inhibition 10’ (TbrCatL; [6]): 19% | Cruzain Inhibition 0’ (cruzain; [5]): 18% | Cruzain Inhibition 10’ (cruzain; [6]): 12%

c1ccc(-c2cc(N3CCCCC3)c3ccccc3n2)nc1 [MMV560185]
TbrCatL Inhibition 0’ (TbrCatL; [5]): 4.5% | TbrCatL Inhibition 10’ (TbrCatL; [6]): -2.4% | Cruzain Inhibition 0’ (cruzain; [5]): 5.5% | Cruzain Inhibition 10’ (cruzain; [6]): -4.5%

CCN(CC)S(=O)(=O)c1ccc(C(=O)Nc2cc(C)nn2-c2nc(C)c(C)c(=O)[nH]2)cc1 [MMV595321]
TbrCatL Inhibition 0’ (TbrCatL; [5]): -23% | TbrCatL Inhibition 10’ (TbrCatL; [6]): -29% | Cruzain Inhibition 0’ (cruzain; [5]): -13% | Cruzain Inhibition 10’ (cruzain; [6]): -3.8%

CCC(Sc1nc2ccccc2o1)C(=O)Nc1nnc(C)s1 (stereo not drawn) [MMV611037]
TbrCatL 0’ Inhibition (TbrCatL; 0’ (pre-incubation time)): 6% | TbrCatL 10’ Inhibition (TbrCatL; 10’ (pre-incubation time)): 5% | Cruzain 0’ Inhibition (cruzain; [1]): 0.2% | Cruzain 10’ Inhibition (cruzain; [2]): 4%

O=C(NCCN1CCCC1)c1cc(NCCN2CCOCC2)nc2ccc(Cl)cc12 [MMV634140]
inhibition at 5 µM (TbrCatL; read-out: Inhibition at 5 µM (Mean ± SEM %) TbrCatL 0′): 11 ± 1% | inhibition at 5 µM (TbrCatL; read-out: Inhibition at 5 µM (Mean ± SEM %) TbrCatL 10′ inc): 42 ± 3% | inhibition at 5 µM (TbrCatL; read-out: TbrCatL 0’ Inhibition): 11% | inhibition at 5 µM (TbrCatL; read-out: TbrCatL 10’ Inhibition): 42% | inhibition at 5 µM (cruzain; read-out: Cruzain 0’ Inhibition, 0’ (pre-incubation time), sheet "Screening results"): 24% | inhibition at 5 µM (cruzain; read-out: Cruzain 10’ Inhibition, 10’ (pre-incubation time), sheet "Screening results"): 31% | inhibition at 5 µM (cruzain; read-out: Inhibition at 5 µM (Mean ± SEM %) Cruzain 0′, 5 µM, no pre-incubation, initial screening): 24 ± 1% | inhibition at 5 µM (cruzain; read-out: Inhibition at 5 µM (Mean ± SEM %) Cruzain 10′ inc, 5 µM, 10′ pre-incubation, initial screening): 31 ± 3% | inhibition at 5 µM (cruzain; read-out: Inhibition of cruzain or TbrCatL (either enzyme) in the initial screening, 5 µM, either cruzain or TbrCatL, with or without pre-incubation): ≥ 40%

Cc1ccc(C(=O)Nc2ccc(S(=O)(=O)O)c3cc(S(=O)(=O)O)cc(S(=O)(=O)O)c23)cc1NC(=O)c1cccc(NC(=O)Nc2cccc(C(=O)Nc3cc(C(=O)Nc4ccc(S(=O)(=O)O)c5cc(S(=O)(=O)O)cc(S(=O)(=O)O)c45)ccc3C)c2)c1 [MMV637953]
TbrCatL Inhibition 0’ (TbrCatL; [5]): -4.4% | TbrCatL Inhibition 10’ (TbrCatL; [6]): -0.2% | Cruzain Inhibition 0’ (cruzain; [5]): 32% | Cruzain Inhibition 10’ (cruzain; [6]): 21%

O=C(Nc1ccc2c(c1)B(O)OC2)c1ccccc1C(F)(F)F [MMV652003]
TbrCatL Inhibition 0’ (TbrCatL; [5]): -5.6% | TbrCatL Inhibition 10’ (TbrCatL; [6]): -1.7% | Cruzain Inhibition 0’ (cruzain; [5]): 22% | Cruzain Inhibition 10’ (cruzain; [6]): 16%

Cc1nc(-c2ccccn2)nc(N(C)CCc2ccccc2)c1Cl [MMV658988]
TbrCatL Inhibition 0’ (TbrCatL; [3]): -5.5% | TbrCatL Inhibition 10’ (TbrCatL; [4]): 10% | Cruzain Inhibition 0’ (cruzain; [3]): -3% | Cruzain Inhibition 10’ (cruzain; [4]): 14%

Cc1nc(-c2ccccn2)nc(NCCc2ccc(S(C)(=O)=O)cc2)c1Cl [MMV658993]
TbrCatL 0’ Inhibition (TbrCatL; 0’ (pre-incubation time)): -11% | TbrCatL 10’ Inhibition (TbrCatL; 10’ (pre-incubation time)): -12% | Cruzain 0’ Inhibition (cruzain; [1]): -6.4% | Cruzain 10’ Inhibition (cruzain; [2]): 9%

Cc1nc(-c2ccccn2)nc(N2CCC(Cc3ccccc3)C2)c1Cl (stereo not drawn) [MMV659004]
TbrCatL 0’ Inhibition (TbrCatL; 0’ (pre-incubation time)): -4.5% | TbrCatL 10’ Inhibition (TbrCatL; 10’ (pre-incubation time)): -2.3% | Cruzain 0’ Inhibition (cruzain; [1]): -2% | Cruzain 10’ Inhibition (cruzain; [2]): 12%

FC(F)(F)c1cc(NCCc2ccccc2)nc(-c2ccccn2)n1 [MMV659010]
TbrCatL 0’ Inhibition (TbrCatL; 0’ (pre-incubation time)): 8% | TbrCatL 10’ Inhibition (TbrCatL; 10’ (pre-incubation time)): 9% | Cruzain 0’ Inhibition (cruzain; [1]): -2.5% | Cruzain 10’ Inhibition (cruzain; [2]): 6%

Brc1cncc(-c2cc(NCCCn3ccnc3)nc(-c3ccccc3)n2)c1 [MMV661713]
TbrCatL Inhibition 0’ (TbrCatL; [5]): 20% | TbrCatL Inhibition 10’ (TbrCatL; [6]): 10% | Cruzain Inhibition 0’ (cruzain; [5]): 20% | Cruzain Inhibition 10’ (cruzain; [6]): 13%

Clc1cccc(C(c2ccc(CN3CCNCC3)cc2)n2ccnc2)c1 (stereo not drawn) [MMV663250]
TbrCatL 0’ Inhibition (TbrCatL; 0’ (pre-incubation time)): -13% | TbrCatL 10’ Inhibition (TbrCatL; 10’ (pre-incubation time)): -1.1% | Cruzain 0’ Inhibition (cruzain; [1]): -0.3% | Cruzain 10’ Inhibition (cruzain; [2]): 10%
